Where “and” joins values, the source holds several entries; their conditions need not be identical. Equal values may be shown once. Read-outs that look alike come from different tables or passages of the source.
Tested on: panel of 66 cancer cell lines
Assay: cancer cell line screen, proliferation assay (ATPlite, 72 h)
Type: cell-based, human
Details: for IC50: Homo sapiens, read-out: IC50; for raw signal, dose-response (Figure S7a): rep1, rep2, listed as AVX420
Excerpt: Targeting specific molecular vulnerabilities in cancer is considered a key approach to reducing the adverse effects of chemotherapy. However, the events that govern the susceptibility to suppression of the cPLA2α in cancer remain largely unexplored. We therefore took the approach of screening the antiproliferative activity of AVX420 in a panel of 66 cancer cell lines (hereafter referred to as the cancer cell line screen or CCLS) to allow us to investigate molecular and genetic vulnerabilities to the drug.
Screening of compound activities in 66 cancer cell lines was carried out at the Netherlands Translation Research Center. Briefly, proliferation assays were performed 72 h after compound addition using ATPlite 1step reagent (Perkin Elmer). IC50s calculated by non-linear regression analysis were used as a measure of compound activity for investigating associations with genetic factors. A complete description of the laboratory and data analysis methods are available in the Supplementary Information file (Supplemental Methods: Cancer Cell Line Screening).
Cancer cell line screening
Cell proliferation assays
All cell lines were from the American Type Culture Collection (ATCC) Manassas, Virginia (US) and maintained under ATCC-recommended protocols and within 9 pas- […]
DMSO at -80°C until one hour before use. Cells exposed within one hour after thaw-ing of the compound stocks. Final compound concentration range in the assay was 10 […]
cated by supplier. Compounds were dissolved in 100 % DMSO and stored at room temperature. Final concentration of the reference compounds in the assay was 3.16x10-5 M to 3.16x10-9 M. The final DMSO concentration during incubation was […]
Cell lines were plated in Advanced RPMI 1640 (Gibco, ref 12633-012) cell culture medium, containing 1% Glutamax solution (Gibco, ref 35050-038), 0.4% Pen Strep solution (Gibco, ref 15140-122) and bovine serum. The cPLA2α inhibitors were tested in 0.5% bovine serum (HyClone, ref SH30072.03) with the exception of769-P, A-204, BT-549, SR, T98G, which were tested in the presence of 1.0% serum and A-704 and LNCaP FGS, which were tested in the in the presence of 10% serum. Reference com-pounds were all tested in the presence of 10% bovine serum.
Cells were dispensed in a 384-well plate, at a concentration of 200 - 3200 cells per well, depending on the cell line, in 45 μL medium. Plated cells were incubated in a humidified atmosphere of 5% CO2 at 37 °C. After 24 hours, 5 μL of compound dilu-tion was added and plates were further incubated for another 72 hours. After 72 hours, 25 μL of ATPlite 1Step™ (PerkinElmer) solution was added to each well, and subse-quently shaken for 2 minutes. After 10 minutes of incubation in the dark, the lumines-cence was recorded on an Envision multimode reader (PerkinElmer).
Cell growth control. The cellular doubling times of all cell lines are calculated from the t = 0 hours and t = 72 hours growth signals of the untreated cells. If the doubling time is out of specification (0.5 – 2.0 times deviating from historic average) the assay […]
IC50s were calculated by non-linear regression using IDBS XLfit 5. The percentage growth after 72h (%-growth) was calculated as follows: 100% x (luminescence t = 72h / luminescence untreated,t=72h). This was fitted to the 10log compound concentration (conc) by a 4-parameter logistics curve: %-growth = bottom + (top – bottom) / (1+ 10(logIC50 – conc)*hill)), where hill is the Hill-coefficient, and bottom and top the asymptotic mini-mum and maximum cell growth that the compound allows in that assay.
All analysis were performed in the statistical software package R and visualized using GraphPad Prism version 10.0 .0

`CCCCCCCOc1ccc(OCC(=O)c2nc(C(=O)OC)cs2)cc1` [GK420] showed an IC50 (SJCRH30) of 16.6 µM, an IC50 (SK-N-AS) of 14.2 µM and an IC50 (SK-N-FI) of 20 µM. It also gave an IC50 (SNU-C2B) of 19.3 µM, an IC50 (SR) of 12.5 µM and an IC50 (SUP-T1, SUP-T1) of 17.9 µM. For the same compound, the IC50 (SW48, SW48) was 22.6 µM, the IC50 (SW480, SW480) was 14.3 µM and the IC50 (SW948, SW948) was 21.1 µM. It also gave an IC50 (SW-620, SW620) of 20 µM, an IC50 (T98G) of 42.4 µM and an IC50 (T-24, T24) of 14.7 µM. The IC50 (TT) was 27.7 µM, the IC50 (U2OS, U-2 OS) was 8.01 µM and the IC50 (U-87 MG) was 20.3 µM. The IC50 (VA-ES-BJ) was 23 µM, the pIC50 (Hs578T, breast) was 4,834 and the pIC50 (J82, urinary_tract) was 4,716. The “raw signal, dose-response (Figure S7a)” value (Jurkat E6.1, Log10 M -5) was 18200 and 21347, the “raw signal, dose-response (Figure S7a)” value (Jurkat E6.1, Log10 M -5.5) was 21213 and 30520 and the “raw signal, dose-response (Figure S7a)” value (Jurkat E6.1, Log10 M -6.5) was 2114520 and 2235427. The “raw signal, dose-response (Figure S7a)” value (Jurkat E6.1, Log10 M -7) was 2341173 and 2551267, the “raw signal, dose-response (Figure S7a)” value (Jurkat E6.1, Log10 M -7.5) was 2392960 and 2321813 and the “raw signal, dose-response (Figure S7a)” value (Jurkat E6.1, Log10 M -8) was 2356933 and 2578573. For the same compound, the pIC50 (Jurkat, blood) was 6,245, the pIC50 (K562, blood) was 4,814 and the “raw signal, dose-response (Figure S7a)” value (K562, Log10 M -4) was 74307 and 48600. For the same compound, the “raw signal, dose-response (Figure S7a)” value (K562, Log10 M -4.5) was 1190933 and 1527307, the “raw signal, dose-response (Figure S7a)” value (K562, Log10 M -5) was 13304880 and 13536973 and the “raw signal, dose-response (Figure S7a)” value (K562, Log10 M -5.5) was 15252080 and 16813307. The pIC50 (KU812, blood) was 5,039, the “raw signal, dose-response (Figure S7a)” value (KU812, Log10 M -4) was 2867 and 5600 and the “raw signal, dose-response (Figure S7a)” value (KU812, Log10 M -4.5) was 66600 and 77573. For the same compound, the “raw signal, dose-response (Figure S7a)” value (KU812, Log10 M -5.5) was 3841840 and 3310707, the “raw signal, dose-response (Figure S7a)” value (KU812, Log10 M -6) was 3516360 and 3607827 and the “raw signal, dose-response (Figure S7a)” value (KU812, Log10 M -6.5) was 3576653 and 3459747. The “raw signal, dose-response (Figure S7a)” value (KU812, Log10 M -7) was 3573240 and 3479493, the “raw signal, dose-response (Figure S7a)” value (KU812, Log10 M -7.5) was 3396627 and 3395373 and the “raw signal, dose-response (Figure S7a)” value (KU812, Log10 M -8) was 3660107 and 3329680. The pIC50 (LoVo, large_intestine) was 4,781, the pIC50 (MCF7, breast) was 4,833 and the pIC50 (MG63, bone) was 4,644. For the same compound, the pIC50 (MIAPaCa2, pancreas) was 4,884, the “raw signal, dose-response (Figure S7a)” value (MOLT-4, Log10 M -4) was 6187 and 5813 and the “raw signal, dose-response (Figure S7a)” value (MOLT-4, Log10 M -5) was 64080 and 125733. The “raw signal, dose-response (Figure S7a)” value (MOLT-4, Log10 M -5.5) was 4862747 and 5232987, the “raw signal, dose-response (Figure S7a)” value (MOLT-4, Log10 M -6) was 6801747 and 6267067 and the “raw signal, dose-response (Figure S7a)” value (MOLT-4, Log10 M -6.5) was 7366227 and 6477733. The “raw signal, dose-response (Figure S7a)” value (MOLT-4, Log10 M -7) was 6306707 and 6935720, the “raw signal, dose-response (Figure S7a)” value (MOLT-4, Log10 M -7.5) was 6661907 and 6660467 and the “raw signal, dose-response (Figure S7a)” value (MOLT-4, Log10 M -8) was 6315747 and 6363187. For the same compound, the pIC50 (MeWo, skin) was 4,711, the pIC50 (NCIH82, lung) was 5,315 and the pIC50 (NCIH460, lung) was 4,489. The pIC50 (RPMI7951, skin) was 4,852, the pIC50 (RT4, urinary_tract) was 4,477 and the pIC50 (SHP77, lung) was 4,861. The pIC50 (SKNAS, peripheral_nervous_system) was 4,847, the pIC50 (SKNFI, peripheral_nervous_system) was 4,698 and the “raw signal, dose-response (Figure S7a)” value (SR, Log10 M -4) was 11267 and 10080. For the same compound, the “raw signal, dose-response (Figure S7a)” value (SR, Log10 M -4.5) was 14987 and 22200, the “raw signal, dose-response (Figure S7a)” value (SR, Log10 M -5) was 2171560 and 2105733 and the “raw signal, dose-response (Figure S7a)” value (SR, Log10 M -5.5) was 2501520 and 2976000. For the same compound, the “raw signal, dose-response (Figure S7a)” value (SR, Log10 M -6) was 2547880 and 3067093, the “raw signal, dose-response (Figure S7a)” value (SR, Log10 M -6.5) was 2848387 and 3116973 and the “raw signal, dose-response (Figure S7a)” value (SR, Log10 M -7) was 3165427 and 3131507. The “raw signal, dose-response (Figure S7a)” value (SR, Log10 M -7.5) was 3036893 and 2296373, the “raw signal, dose-response (Figure S7a)” value (SR, Log10 M -8) was 3222893 and 3197013 and the “raw signal, dose-response (Figure S7a)” value (SUP-T1, Log10 M -4) was 26587 and 37653. For the same compound, the “raw signal, dose-response (Figure S7a)” value (SUP-T1, Log10 M -5) was 6935960 and 5931427, the “raw signal, dose-response (Figure S7a)” value (SUP-T1, Log10 M -5.5) was 6473080 and 6695013 and the “raw signal, dose-response (Figure S7a)” value (SUP-T1, Log10 M -6) was 6511467 and 6816760. The “raw signal, dose-response (Figure S7a)” value (SUP-T1, Log10 M -6.5) was 6737680 and 6611147, the “raw signal, dose-response (Figure S7a)” value (SUP-T1, Log10 M -7) was 6237733 and 6274507 and the “raw signal, dose-response (Figure S7a)” value (SUP-T1, Log10 M -7.5) was 6362947 and 6848640. For the same compound, the “raw signal, dose-response (Figure S7a)” value (SUP-T1, Log10 M -8) was 6336067 and 6341827, the pIC50 (SUPT1, blood) was 4,747 and the pIC50 (SW48, large_intestine) was 4,646. The pIC50 (SW480, large_intestine) was 4,843, the pIC50 (SW620, large_intestine) was 4,698 and the pIC50 (SW948, large_intestine) was 4,676. The pIC50 (T24, urinary_tract) was 4,833, the pIC50 (T98G, central_nervous_system) was 4,373 and the pIC50 (TT, thyroid) was 4,558. The pIC50 (U2OS, bone) was 5,097, the pIC50 (U87MG, central_nervous_system) was 4,692 and the pIC50 (VAESBJ, soft_tissue) was 4,638.

From paper PMC11696576, “Next generation thiazolyl ketone inhibitors of cytosolic phospholipase A2 α for targeted cancer therapy” (Nature Communications, 2025)
